Test system: dextransucrase
Test: Inhibition of dextransucrase synthesis of dextran from 14C-sucrose (radioactive polysaccharide on paper, slope versus control)
Assay type: biochemical, bacteria
Details: compared to 6,1',6'-trifluorosucrose
Procedure: Dextransucrase was obtained from the culture supernatant of bacteria. Various amounts (6 to 30 mg/ml) of the fluorosucrose mixture prepared as in Example I were added to the enzyme (3 units/ml)* and allowed to incubate 10 minutes. At the end of this time, the enzyme was assayed by adding 1/2 volume of 0.3 M ^14 C-(U)-sucrose to the fluorosucrose-enzyme solution; equal aliquots were withdrawn with time and spotted onto 1.5×1.5 cm squares of Whatman 3 MM paper, which were immediately dropped into 20 ml anhydrous methanol. Three 200 ml volumes of methanol were added in 15 min. intervals. The papers were then removed, dried, and the radioactivity determined in a liquid scintillation spectrometer. The amount of radioactivity (polysaccharide formed) was plotted against the reaction time with sucrose (time of aliquot removed). The slopes of the resulting lines were determined and the percent inhibition calculated from the ratio of the slopes of the inhibited reactions to the slope of a control in which no inhibitor was added.
*Units are in terms of International Enzyme Units, that is, the amount of enzyme that will incorporate one micromole of monomer into polysaccharide per minute under conditions of optimum temperature and pH.

SMILES: O[C@@H]1[C@@H](O)[C@@H](O[C@]2(CCl)O[C@H](CCl)[C@@H](O)[C@@H]2O)O[C@H](CCl)[C@H]1O [6,1',6'-trichlorosucrose]
- effectiveness as an inhibitor for dextran: relatively ineffective

Source: patent US4228150A, “Method of inhibiting dextransucrase and oral compositions for use therein” (Iowa State University Research Foundation, Inc., priority 1979, dated 1980)
